According to patent publication US8501908B2, “Immunogenic peptides” (priority 2008, dated 2013):

Tests used:
Type in all cases: cell-based, human
[1] = tested on: PBMCs from healthy donors; experiment: γ-IFN release ELISPOT, PBMCs of healthy donors after short-term culture with peptides; details: triplicate ELISPOT, ± SD
[2] = tested on: SUDHL-6 (DLBCL) cell line; experiment: 51Cr release cytolytic assay of peptide-specific CTL/TH cell lines; details: PASD1-negative SUDHL-6; for lysis by CTL lines raised against the peptide: 4 h 51Cr release
Experimental: (§1) A conventional ^51Cr-labelling release assay was used to investigate the ability of CTL and TH cell lines generated from DLBCL patients to lyse PASD1-positive tumour target cells. The target cell lines, consisting of the OCI-Ly3, SUDHL-6, KM-H2 and Thiel, were radiolabelled with 100 μCi ^51Cr for 90 minutes. […] The incubation period of the TH with the target cells was increased to 18 hours. Maximum ^51Cr release was determined following the addition of 10% Triton-X to the radiolabelled target cells and spontaneous release was assessed by adding RPMI1640/FCS to the target cells. The supernatant was harvested and counted in a gamma-counter (Beckmann, Heidelberg, Germany).

[3] = tested on: Thiel (myeloma) cell line; experiment: as above; details: for lysis by CTL lines raised against the peptide: HLA-A*0201-positive PASD1-positive Thiel, 4 h 51Cr release, four patients
Experimental: as §1

[4] = tested on: OCI-Ly3 (DLBCL) cell line; experiment: as above; details: for lysis by CTL lines raised against the peptide: PASD1-positive HLA-A*0201-negative OCI-Ly3, 4 h 51Cr release
Experimental: as §1

[5] = tested on: PBMCs from DLBCL patients; experiment: γ-IFN release ELISPOT, PBMCs of DLBCL patients after short-term culture with peptides; parameters: γ-IFN response to peptides: unit not given here; details: for γ-IFN response to peptides: triplicate ELISPOT; for order of immunogenicity for eliciting CTLs: order PASD1(1), PASD1(2), PASD1(5), PASD1(3), PASD1(4)
[6] = tested on: KM-H2 (HL) cell line; experiment: 51Cr release cytolytic assay of peptide-specific CTL cell lines; details: HLA-A*0201-negative PASD1-positive KM-H2; 4 h 51Cr release
Experimental: as §1

[7] = PBMCs from a DLBCL patient stimulated in culture with PASD1(6) or PASD1(7) peptides, +/− SD

## DYFNQVTLQLLDGFMITLST (listed as Homo sapiens) [PASD1(6)]
[1]; Healthy donor HD 1, DRB1-0102
  γ-IFN response to peptides: 14 ± 2
[1]; Healthy donor HD 2, DRB1-0401
  γ-IFN response to peptides: 10 ± 2
[1]; Healthy donor HD 3, DRB1-0401
  γ-IFN response to peptides: 5 ± 2
[1]; Healthy donor HD 4, DRB1-0301
  γ-IFN response to peptides: 14 ± 2
[1]; Healthy donor HD 5, DRB1-0301
  γ-IFN response to peptides: 24 ± 2
[2]; 18 h 51Cr release
  lysis by TH cell lines specific for the peptide: no significant lysis
[3]; PASD1-positive Thiel, 18 h 51Cr release
  lysis by TH cell lines specific for the peptide: Significant dose dependent lysis
[4]; PASD1-positive OCI-Ly3, 18 h 51Cr release
  lysis by TH cell lines specific for the peptide: Significant dose dependent lysis
[5]; DLBCL patients (FIG. 5), short term culture, p<0.05
  TH γ-IFN response to peptides at time of diagnosis and after one year: significant
[5]; [7]
  γ-IFN response to peptides: 32 +/− 2
[5]; Patient 1, De novo DLBCL, DRB1-0102, group Significant response, ± SD
  γ-IFN response to peptides: 52 ± 6
[5]; Patient 2, De novo DLBCL, DRB1-0101, group Significant response, ± SD
  γ-IFN response to peptides: 32 ± 4
[5]; Patient 3, De novo DLBCL, DRB1-0301, group Significant response, ± SD
  γ-IFN response to peptides: 34 ± 4
[5]; Patient 4, De novo DLBCL, DRB1-0102, group Significant response, ± SD
  γ-IFN response to peptides: 58 ± 8
[5]; Patient 8, De novo DLBCL, DRB1-1501, group Significant response, ± SD
  γ-IFN response to peptides: 36 ± 6
[5]; Patient 9, De novo DLBCL, DRB1-0301, group Significant response, ± SD
  γ-IFN response to peptides: 22 ± 6
[5]; Patient 10, De novo DLBCL, DRB1-0101, group No significant response, ± SD
  γ-IFN response to peptides: 30 ± 8
[5]; Patient 12, De novo DLBCL, DRB1-0401, group Significant response, ± SD
  γ-IFN response to peptides: 44 ± 6
[5]; Patient 15, De novo DLBCL, DRB1-1301, group No significant response, ± SD
  γ-IFN response to peptides: 28 ± 4
[5]; Patient 17, De novo DLBCL, DRB1-0301, group No significant response, ± SD
  γ-IFN response to peptides: 20 ± 2
[5]; Patient 18, De novo DLBCL, DRB1-0401, group No significant response, ± SD
  γ-IFN response to peptides: 14 ± 2
[5]; Patient 19, De novo DLBCL, DRB1-1104, group No significant response, ± SD
  γ-IFN response to peptides: 22 ± 2
[5]; Patient 20, De novo DLBCL, DRB1-1303, group No significant response, ± SD
  γ-IFN response to peptides: 10 ± 2
[5]; Patient 21, De novo DLBCL, DRB1-0301, group No significant response, ± SD
  γ-IFN response to peptides: 18 ± 2
[5]; Patient 24, De novo DLBCL, DRB1-1301, group Significant response, ± SD
  γ-IFN response to peptides: 22 ± 4
[5]; Patient 28, Trans DLBCL, DRB1-0701, group No significant response, ± SD
  γ-IFN response to peptides: 28 ± 4
[5]; Patient 37, Trans DLBCL, DRB1-0103, group Significant response, ± SD
  γ-IFN response to peptides: 38 ± 4
[5]; Patient 48, T-cell rich DLBCL, DRB1-0301, group Significant response, ± SD
  γ-IFN response to peptides: 48 ± 4
[5]; Patient 61, De novo DLBCL, DRB1-0401, group No significant response, ± SD
  γ-IFN response to peptides: 22 ± 2
[5]; TH γ-IFN response, DLBCL patients
  immunogenicity among patients studied: immunogenic in the majority of patients
[5]; cells cultured 8-10 days with PASD1(6) or PASD1(7), Table 4
  γ-IFN response to the PASD1(1) CTL peptide elicited by culture with the peptide: comparable
[5]; from γ-IFN release assay, order PASD1(6), PASD1(7), PASD1(10), PASD1(9), PASD1(8)
  order of immunogenicity for eliciting TH cell responses: most immunogenic

## ELSDSLGPV (listed as Homo sapiens) [PASD1(5)]
[2]
  lysis by CTL lines raised against the peptide: not
[3]
  lysis by CTL lines raised against the peptide: dose dependent lysis
[4]
  lysis by CTL lines raised against the peptide: not
[6]
  lysis by CTL lines raised against the peptide: not
[5]; from γ-IFN release assay
  order of immunogenicity for eliciting CTLs: more immunogenic

## QLLDGFMITL (listed as Homo sapiens) [PASD1(1)]
[2]
  lysis by CTL lines raised against the peptide: not
[3]
  lysis by CTL lines raised against the peptide: dose dependent lysis
[3]; effector:target ratio of 5:1, all four patients
  cytolytic effect of peptide-stimulated cells: significant
[4]
  lysis by CTL lines raised against the peptide: not
[6]
  lysis by CTL lines raised against the peptide: not
[5]; [7]
  γ-IFN response to peptides: 30 +/− 4
[5]; from γ-IFN release assay
  order of immunogenicity for eliciting CTLs: most immunogenic

## YLVGNVCIL (listed as Homo sapiens) [PASD1(2)]
[2]
  lysis by CTL lines raised against the peptide: not
[3]
  lysis by CTL lines raised against the peptide: dose dependent lysis
[4]
  lysis by CTL lines raised against the peptide: not
[6]
  lysis by CTL lines raised against the peptide: not
[5]; from γ-IFN release assay
  order of immunogenicity for eliciting CTLs: more immunogenic
